The subject of series [1] is RSV strain A2. The series is described as follows: Virus yield reduction assay in HEp-2 cells. The format is cell-based, Respiratory syncytial virus. To be noted: compound added twice daily. On the procedure:
EC50 & EC90 : concentration required to reduce virus (RSV strain
Both compounds were added to the cells twice daily.

Series [2] deals with RSV Long (A). The series is described as follows: Neutral red uptake assay in HEp-2 cells, RSV strain Long. To be noted: Table 12, neutral red, once a day for two days. The format is cell-based, Respiratory syncytial virus. On the procedure: (§1) This assay was performed by a modified method as described by Cavenaugh et al. (Cavenaugh et al. 1990, Invest. New Drugs 8:347-354). Briefly, medium was removed from each well of a plate scored for CPE from a CPE inhibition assay, 0.2 ml of neutral red (0.034% in PSS) was added to each of the wells of that plate and the plate incubated for 2 hr at 37° C. in the dark. The neutral red solution was removed from the wells and the wells rinsed twice with PBS (pH 7.4). Equal volumes (0.1 ml) of absolute ethanol and Sorenson citrate buffer (0.1 M sodium citrate, 0.1 M HCI, pH 4.2) were mixed together and added to each well. Plates were incubated in the dark for 30 min. at room temperature to solubilize the dye. The plates were then gently mixed on a 96-well plate adapted vortexer for 1 min. Absorbances at 540 nm and 450 nm were read with a microplate reader (Bio-Tek EL 1309; Bio-Tek Instruments, Inc. Winooski, Vt.). Absorbance values were expressed as percents of untreated controls and EC50 and IC50 values were calculated by regression analysis.
(§2) In this series, MP351 was added once a day for two days with fresh medium

Series [3] has as its system RSV CH18537 (B). The series is described as follows: Neutral red uptake assay in HEp-2 cells, RSV strain CH18537. The format is cell-based, Respiratory syncytial virus. The note with it: Table 12, neutral red, once a day for two days. On the procedure: as §1, §2
Series [4] deals with RSV strain A2. The series is described as follows: Neutral red uptake assay of CPE inhibition in HEp-2 cells. The class given is cell-based, Respiratory syncytial virus. The note with it: read-out: EC50. On the procedure:
as §1

The subject of series [5] is RSV 393 (clinical isolate). The series is described as follows: CPE inhibition assay in HEp-2 cells, RSV 393. The format is cell-based, Respiratory syncytial virus. The note with it: Table 12, CPE, once a day for two days. On the procedure:
(§3) The CPE inhibition assay used in this study was performed as described by Sidwell and Huffman (Sidwell et al., 1971, Appl. Microbiol. 22:7979-7801) with slight modifications. Varying concentrations of test compounds were added to each plate containing near confluent cell monolayers (1×10^5 cells/well) followed immediately by the addition of virus at a multiplicity of infection (MOI)=0.01, and then incubated at 37° C. On the following day, the medium from each plate was removed and fresh compound added. The assay was stopped at the end of the sixth day when the virus cytopathic effect in the virus infected, untreated control cells affected all cells. All compounds were assayed for virus inhibition in quadruplicate and for cytotoxicity in duplicate. For each compound, two wells were set aside as uninfected, untreated cell controls per test and four wells per test received virus only and represented controls for virus replication. […] For all CPE-based assays, the 50% effective concentration (EC50) was calculated by regression analysis using the means of the CPE ratings at each concentration of compound.
as §2

The subject of series [6] is A2 strain RSV. Kind of series: CPE inhibition assay in MA-104 cells. The format is cell-based, Respiratory syncytial virus. On the procedure:
as §3
EC50 Concentration for 50% inhibition of virus replication (microM)
(§4) Determined in MA-104 cells, A2 strain RSV

For series [7], the system named is RSV strain A2. Kind of series: CPE inhibition assay in HEp-2 cells. The class given is cell-based, Respiratory syncytial virus. To be noted: Table 10, CPE; B.I.D. 3 days; HEp2; read-out: EC50. On the procedure: as §3, with “On the following day, the medium from each plate was removed and fresh compound added. The assay was stopped at the end of the sixth day when the virus cytopathic effect in the virus infected, untreated control cells affected all cells.” left out

Series [8] relates to RSV CH18537 (B). The series is described as follows: CPE inhibition assay in HEp-2 cells, RSV strain CH18537. The format is cell-based, Respiratory syncytial virus. The note with it: Table 12, CPE, once a day for two days. On the procedure: as §3, §2
Series [9] concerns RSV 393 (clinical isolate). Kind of series: Neutral red uptake assay in HEp-2 cells, RSV 393. The format is cell-based, Respiratory syncytial virus. The note with it: Table 12, neutral red, once a day for two days. On the procedure: as §1, §2
Series [10] relates to MA-104 cells. The series is described as follows: Cytotoxicity graded by morphological change in MA-104 cells. The format is cell-based, African green monkey. On the procedure: (§5) Embryonic African green monkey kidney cells (MA-104) were obtained from BioWhittaker, Inc. (Walkersville, Md.). HEp-2 cells were propagated from a human epidermoid carcinoma of the larynx (American Type Culture Collection, ATCC; Rockville, Md.). The cells were grown in minimal essential medium. (MEM, Gibco-BRL, Gaitherburg, Md.) supplemented with 0.1% NaHCO3 and 10% fetal bovine serum (FBS, Hyclone Laboratories, Logan Utah.). When performing antiviral assays, serum was reduced to 2% and 50 μg/ml gentamicin (Sigma Chemical Company, St. Louis, Mo.) was added to the medium.
(§6) Morphological changes due to compound cytotoxicity were graded on a scale of 0-5; grade 5 was defined as 100% cytotoxicity. The 50% cytotoxic dose (IC50 was calculated by regression analysis. A selective index (S.I.) was calculated for each compound [S.I.=(IC50)/(EC50 ].
IC50 Conc. for 50% cytotoxicity grade by morphological change (microM)
as §4

For series [11], the system named is RSV Long (A). The series is described as follows: CPE inhibition assay in HEp-2 cells, RSV strain Long. To be noted: Table 12, CPE, once a day for two days. The format is cell-based, Respiratory syncytial virus. On the procedure:
as §3, §2

For series [12], the system named is Hep-2 Cells. Kind of series: Neutral red uptake assay of cytotoxicity in HEp-2 cells. The class given is cell-based, human. On the procedure: as §5, §1
In series [13] the test system is Hep-2 Cells. Kind of series: Cytotoxicity by morphological changes in HEp-2 cells (CPE inhibition assay). The format is cell-based, human. On the procedure:
as §5, §6

Series [14] has as its system RSV M2 RNA. The series is described as follows: RT-PCR of M2 RNA from RSV-infected 9HTE cells. The class given is cell-based, Respiratory syncytial virus. To be noted: RNA at 8 h post-infection, M.O.I.=10. On the procedure: To determine if RSV RNA levels correlated with antiviral activity, RT-PCR analysis was performed on RNA isolated from RSV-infected and uninfected 9HTE cells with and without treatment with spA4 -antiRSV3'3'T/(8281-8299) or spA4 -antiRSV3'3'A/(8530-8547). An M2 RNA sequence in RSV (from nucleotides 7879 to 8465) was converted to cDNA and amplified by PCR. M2 RNA from the RSV-infected cells produced an RT-PCR DNA product that was clearly visible. […] Levels of GAPDH transcripts were similar in all of these RNA preparations.
RNA was collected from 2×10^5 9HTE cells at 8 h post-infection (M.O.I.=10) by RNAzol treatment as described by the manufacturer (Tel-Test, Inc, Freindswood, Tex.). RNA was isolated after 8 h to limit RSV replication to a single cycle. Isolated RNA (≈1 μg) was incubated with 100 pmoles of the appropriate downstream (-) primer listed below or 100 pmoles of random hexamer (used for glyceraldehyde-3-phosphatedehydrogenase, GAPDH, mRNA only). RNA and primers were heated to 70° C. for 10 min then cooled rapidly on ice for 5 min. […]
25 μl Hot-Start upper buffer contained 5 U Taq DNA polymerase (GibcoBRL) and 1/10th of the cDNA from the RT reaction. […] Aliquots of the RT/PCR mixtures were analyzed on 1% agarose/TBE gels.

Where [15] appears, read: Table 11, neutral red, q.d. 3 days, HEp2.
Setting [16] is: MA-104 cells, A2 strain RSV (Table 8), read-out: EC50 Concentration for 50% inhibition of virus replication.
Setting [17] is: MA-104 cells (Table 8), read-out: IC50 Conc. for 50% cytotoxicity grade by morphological change.
Setting [18] is: Table 8, text says HEP-2 cells, read-out: EC50 (inhibition of RSV replication).
The mark [19] stands for this setting: Table 8, text says HEP-2 cells, read-out: IC50 (toxicity).

Here are results for six substances from US6214805A, “RNase L activators and antisense oligonucleotides effective to treat RSV infections” (priority 1997, dated 2001).

Broadly, the EC90 is the point of the concentration-response curve where the effect stands at 90%. High values mean a need for much substance, low ones an effect from little substance. For orientation: IC50 means the point on the concentration scale where inhibition reaches its midpoint.

Where two headings read alike, the source gives them in different places. A value given as a limit tells only on which side of the number the result lay.

With 2-5A-L2-AsAsAsAATGGGGCAAAsTsAsA [MP351], the EC50 stood at 320 nM in series [1] (virus yield reduced by 50%); 400 nM in series [2]; 100 nM in series [3]; 50 nM in [4] (setting [15]); 320 nM in series [4] (Table 13, neutral red, q.d., fresh compound up to Day 1 post infection, HEp-2); 300 nM in series [5]. The EC50 in [6] (MA104 cells, CPE assay, added once or once daily for 2 days, read-out: EC50) was determined as 1000 nM; in series [6] (setting [16]), 300 nM; in series [7] it was 40 nM; in [8], 100 nM; in [9], 1600 nM; in series [11] it was 300 nM. This substance registered a 90% effect concentration (EC90) in series [1] (virus yield reduced by 90%) of 1000 nM. Besides, the IC50 was greater than 10000 nM in [10] (setting [17]); 3200 nM in series [12] (Table 11, neutral red, B.I.D. 2 days, HEp2); greater than 3200 nM in [12] (Table 11, neutral red, B.I.D. 3 days, HEp2); 3200 nM in series [12] (Table 11, neutral red, B.I.D. 4 days, HEp2); greater than 3200 nM in series [12] (Table 11, neutral red, q.d. 1 day (added along with virus, never replenished), HEp2); 2000 nM in series [12] (setting [15]). The 50% inhibitory concentration (IC50) in series [12] (Table 11, neutral red, q.d. 4 days, HEp2) is greater than 3200 nM; in series [12] (Table 12, neutral red, test with 393 (clinical isolate), HEp-2) it was greater than 3200 nM; in series [12] (Table 12, neutral red, test with CH18537 (B), HEp-2) it was 2400 nM; in [12] (Table 12, neutral red, test with Long (A), HEp-2), 2000 nM; in series [12] (Table 13, neutral red, q.d., Day 0, HEp-2), greater than 3200 nM; in series [12] (Table 13, neutral red, q.d., Day 1, HEp-2), greater than 3200 nM. Besides, the IC50 in series [12] (Table 13, neutral red, q.d., Day 2, HEp-2) is 2200 nM; in series [13] (Table 10, CPE, B.I.D. 2 days, HEp2), greater than 3200 nM; in series [13] (Table 10, CPE, B.I.D. 3 days, HEp2), greater than 3200 nM; in [13] (Table 10, CPE, B.I.D. 4 days, HEp2), 3200 nM; in series [13] (Table 10, CPE, q.d. 1 day (added along with virus, never replenished), HEp2), greater than 3200 nM; in [13] (Table 10, CPE, q.d. 3 days, HEp2), greater than 3200 nM. The IC50 in series [13] (Table 10, CPE, q.d. 4 days, HEp2) was greater than 3200 nM; in series [13] (Table 12, CPE, test with 393 (clinical isolate), HEp-2), greater than 3200 nM; in [13] (Table 12, CPE, test with CH18537 (B), HEp-2) it was greater than 3200 nM; in series [13] (Table 12, CPE, test with Long (A), HEp-2), greater than 3200 nM; in series [13] (Table 13, CPE, q.d., Day 0, HEp-2) it was greater than 3200 nM; in series [13] (Table 13, CPE, q.d., Day 1, HEp-2), greater than 3200 nM. Besides, the IC50 in [13] (Table 13, CPE, q.d., Day 2, HEp-2) is 2200 nM.
With “AsAsAsAATGGGGCAAAsTsAsA (AAAAATGGGGCAAATAA; antisense; DNA, linkages s3 o10 s3 (s phosphorothioate, o phosphodiester), methylation of C not given here) [MP320, gapmer antisense oligonucleotide, three thiophosphorylated linkages at both termini]”, the EC50 in series [6] (setting [16]) turned out to be 10000 nM. In addition, the IC50 in series [10] (setting [17]) was greater than 10000 nM.
As to “AsAsAsAsAsTsGsGsGsGsCsAsAsAsTsAsA (AAAAATGGGGCAAATAA; antisense; DNA, all phosphorothioate, methylation of C not given here) [MP273]”, the EC50 in series [6] (setting [16]) and in series [6] (setting [18]) was 3000 nM throughout. In addition, the IC50 in series [10] (setting [17]) and in [10] (setting [19]) was greater than 10000 nM in each case.
On to “AsTsAsAsGsGsGsGsAsAsCsAsTsAsAsAsA (ATAAGGGGAACATAAAA; antisense; DNA, all phosphorothioate, methylation of C not given here) [MP317, control all PS oligonucleotide that still contained the G quartet motif but otherwise scrambled]”, for which the EC50 in [6] (setting [16]) and in [6] (setting [18]) was 1000 nM throughout. The 50% inhibitory concentration (IC50) in series [10] (setting [17]) and in series [10] (setting [19]) was 5000 nM in each case.
Consider “GsAsAsGsAsCsAsGsAsAsTsAsAsGsAsTsA (GAAGACAGAATAAGATA; antisense; DNA, all phosphorothioate, methylation of C not given here) [MP318]”, for which the EC50 in series [6] (setting [16]) and in series [6] (setting [18]) was 10000 nM throughout. The concentration for half-maximal inhibition (IC50) in [10] (setting [17]) and in series [10] (setting [19]) was 8000 nM each time.
Turning to “spA2'p(A2'p)3 -[(Bu)p]2 -(5'cta tcg gtt aga taa ac3'-3'a5') [spA4-antiRSV3'-3'A/(8530-8547)]”, in series [14], the “inhibition of levels of M2 RNA” value worked out at 17%.
